Measurements as given in ChEMBL document CHEMBL1201862, “PubChem BioAssay data set” (2004).
Active and inactive are the calls of the source.

Experiments:
Caspase-3 = biological target: T1, Caspase-3 (Homo sapiens, UniProt P42574); assay type: functional;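 also: Dose-response selectivity test against caspase-3 for candidate inhibitors of sentrin-specific proteases (SENPs)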
T1 sequence (P42574 whole entry): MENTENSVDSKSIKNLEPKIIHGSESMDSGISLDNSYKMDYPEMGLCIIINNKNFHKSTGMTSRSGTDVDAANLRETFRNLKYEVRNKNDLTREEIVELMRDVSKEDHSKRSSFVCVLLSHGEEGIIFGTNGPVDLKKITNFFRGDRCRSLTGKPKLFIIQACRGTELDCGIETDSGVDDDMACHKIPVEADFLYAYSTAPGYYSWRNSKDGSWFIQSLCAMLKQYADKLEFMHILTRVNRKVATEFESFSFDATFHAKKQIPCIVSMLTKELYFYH

[1] = biological target: T2, Sentrin-specific protease 7 (Homo sapiens, UniProt Q9BQF6); assay type: functional;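 also: Luminescence-based dose-response confirmation of ultra-high-throughput screening hits, measuring inhibition of SENP7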
T2 sequence (Q9BQF6 whole entry): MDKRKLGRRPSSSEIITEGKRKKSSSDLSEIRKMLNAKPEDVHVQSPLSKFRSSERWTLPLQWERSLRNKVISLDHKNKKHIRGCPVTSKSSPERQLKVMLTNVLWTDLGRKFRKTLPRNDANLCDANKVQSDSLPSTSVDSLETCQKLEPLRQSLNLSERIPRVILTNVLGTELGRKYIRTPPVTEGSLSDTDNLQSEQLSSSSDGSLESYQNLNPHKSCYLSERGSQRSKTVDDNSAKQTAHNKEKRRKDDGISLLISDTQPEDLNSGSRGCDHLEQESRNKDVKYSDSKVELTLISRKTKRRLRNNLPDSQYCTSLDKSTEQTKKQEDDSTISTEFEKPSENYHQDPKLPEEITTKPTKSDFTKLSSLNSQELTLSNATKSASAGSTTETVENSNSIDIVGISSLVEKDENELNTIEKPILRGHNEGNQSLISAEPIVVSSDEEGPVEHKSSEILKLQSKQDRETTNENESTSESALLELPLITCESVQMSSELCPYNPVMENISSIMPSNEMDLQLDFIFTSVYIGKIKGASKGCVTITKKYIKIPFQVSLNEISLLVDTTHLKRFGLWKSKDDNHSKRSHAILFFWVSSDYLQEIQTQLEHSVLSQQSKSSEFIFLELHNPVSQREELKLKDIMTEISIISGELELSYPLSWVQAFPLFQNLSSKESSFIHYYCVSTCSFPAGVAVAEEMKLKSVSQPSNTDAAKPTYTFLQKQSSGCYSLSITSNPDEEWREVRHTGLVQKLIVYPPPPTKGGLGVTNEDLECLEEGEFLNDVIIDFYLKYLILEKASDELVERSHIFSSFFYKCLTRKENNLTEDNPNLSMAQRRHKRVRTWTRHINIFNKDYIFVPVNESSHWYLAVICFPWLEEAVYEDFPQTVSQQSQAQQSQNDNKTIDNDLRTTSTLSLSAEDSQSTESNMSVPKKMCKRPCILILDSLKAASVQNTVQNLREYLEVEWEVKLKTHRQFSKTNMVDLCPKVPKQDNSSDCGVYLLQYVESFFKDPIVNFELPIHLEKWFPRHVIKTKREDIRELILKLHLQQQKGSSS

[2] = biological target: T3, Sentrin-specific protease 6 (Homo sapiens, UniProt Q9GZR1); assay type: functional;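 also: Luminescence-based dose-response confirmatory assay of SENP6 inhibition, following up an ultra-high-throughput screen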
T3 sequence (Q9GZR1 whole entry): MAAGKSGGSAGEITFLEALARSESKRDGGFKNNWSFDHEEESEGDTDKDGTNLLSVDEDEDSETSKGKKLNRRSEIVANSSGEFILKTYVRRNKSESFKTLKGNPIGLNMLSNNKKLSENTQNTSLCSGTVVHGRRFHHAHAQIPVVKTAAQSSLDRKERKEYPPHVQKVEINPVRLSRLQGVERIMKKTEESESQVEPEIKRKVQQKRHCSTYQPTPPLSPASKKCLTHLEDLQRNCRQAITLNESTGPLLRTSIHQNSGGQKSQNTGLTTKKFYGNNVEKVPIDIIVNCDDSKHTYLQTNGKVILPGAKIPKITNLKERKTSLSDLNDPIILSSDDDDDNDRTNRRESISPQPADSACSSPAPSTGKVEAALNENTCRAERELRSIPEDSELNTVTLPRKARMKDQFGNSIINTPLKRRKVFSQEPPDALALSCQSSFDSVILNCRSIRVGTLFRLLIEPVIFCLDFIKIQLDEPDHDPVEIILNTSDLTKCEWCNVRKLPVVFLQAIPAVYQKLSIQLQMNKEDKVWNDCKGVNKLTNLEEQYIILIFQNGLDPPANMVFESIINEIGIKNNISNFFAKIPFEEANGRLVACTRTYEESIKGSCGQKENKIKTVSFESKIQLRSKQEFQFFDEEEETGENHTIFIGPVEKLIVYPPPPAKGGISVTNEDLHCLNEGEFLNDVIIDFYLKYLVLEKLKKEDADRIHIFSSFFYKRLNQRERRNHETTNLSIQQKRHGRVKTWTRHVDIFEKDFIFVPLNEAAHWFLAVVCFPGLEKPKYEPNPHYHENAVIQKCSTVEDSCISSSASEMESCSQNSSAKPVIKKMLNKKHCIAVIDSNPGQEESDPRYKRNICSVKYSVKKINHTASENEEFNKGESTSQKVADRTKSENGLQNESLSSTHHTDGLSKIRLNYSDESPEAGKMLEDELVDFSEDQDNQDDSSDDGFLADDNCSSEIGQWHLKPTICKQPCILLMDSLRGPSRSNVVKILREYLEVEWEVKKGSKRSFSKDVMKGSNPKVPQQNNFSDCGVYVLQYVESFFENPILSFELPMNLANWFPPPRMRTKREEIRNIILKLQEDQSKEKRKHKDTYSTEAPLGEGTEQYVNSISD

[3] = biological target: T4, Sentrin-specific protease 8 (Homo sapiens, UniProt Q96LD8); assay type: functional;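 also: luminescence read-out of SENP8 inhibition, dose-response confirmation following an ultra-high-throughput screen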
T4 sequence (Q96LD8 whole entry): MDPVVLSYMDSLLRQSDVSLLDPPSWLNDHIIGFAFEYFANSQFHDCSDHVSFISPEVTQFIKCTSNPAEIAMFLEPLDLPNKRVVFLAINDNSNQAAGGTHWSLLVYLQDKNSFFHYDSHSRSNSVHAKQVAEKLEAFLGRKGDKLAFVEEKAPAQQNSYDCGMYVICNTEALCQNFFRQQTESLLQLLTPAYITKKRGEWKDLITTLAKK

[4] = biological target: T5, Oxysterols receptor LXR-beta (Homo sapiens, UniProt P55055); assay type: functional, cell-based;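 also: Cell-based luminescence dose-response assay of agonist activity at LXR, run as a confirmatory counterscreen to a daf-12 agonist screen; HEK293 cells with Gal4-LXR fusion and GAL4-driven luciferase reporter; agonist potency from rising luciferase signal of a Gal4-LXR reporter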
T5 sequence (P55055 whole entry): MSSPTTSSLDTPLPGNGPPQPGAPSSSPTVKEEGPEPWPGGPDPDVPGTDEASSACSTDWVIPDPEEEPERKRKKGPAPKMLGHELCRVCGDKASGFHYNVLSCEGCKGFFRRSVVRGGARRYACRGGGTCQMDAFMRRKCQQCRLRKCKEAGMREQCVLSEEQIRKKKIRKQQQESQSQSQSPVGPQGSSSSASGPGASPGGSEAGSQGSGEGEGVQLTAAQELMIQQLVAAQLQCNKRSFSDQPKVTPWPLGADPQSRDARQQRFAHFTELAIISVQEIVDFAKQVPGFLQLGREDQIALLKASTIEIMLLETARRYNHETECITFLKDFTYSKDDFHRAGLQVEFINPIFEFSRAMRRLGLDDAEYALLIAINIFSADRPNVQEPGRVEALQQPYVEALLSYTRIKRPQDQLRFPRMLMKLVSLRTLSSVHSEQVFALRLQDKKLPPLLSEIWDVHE

[5] = enhancers of respiration in Yfh1-depleted yeast, dose response, Friedreich's ataxia, plus single-dose screen (AID 1465); assay type: functional;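 also: yeast depleted of Yfh1p frataxin homolog grown on glycerol needing respiration; WST-1 tetrazolium dye reduction as measure of cellular dehydrogenase metabolic activity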
Troponin, cardiac muscle = Troponin, cardiac muscle (Homo sapiens, UniProt P19429+P45379+P63316); experiment: Fluorescence-based biochemical high throughput dose response assay for activators of the calcium sensitivity of cardiac Regulated Thin Filaments (RTF). [Related pubchem assays (depositor defined):AID493008, AID493018, AID504382, AID504383]; assay type: protein-complex assay
[6] = biological target: NAD-dependent protein deacylase sirtuin-5, mitochondrial (Homo sapiens, UniProt Q9NXA8); experiment: SIRT5 desuccinylase inhibitors, dose response, biochemical, fluorescence imaging, cherry-pick, set 5 (AID 720591);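 also: desuccinylation of succinyl peptide AMC substrate read as fluorescence after trypsin release; potency of inhibitors that lower fluorescence and may act on trypsin instead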
Chain of NAD-dependent protein deacylase sirtuin-5, mitochondrial (Q9NXA8 whole entry): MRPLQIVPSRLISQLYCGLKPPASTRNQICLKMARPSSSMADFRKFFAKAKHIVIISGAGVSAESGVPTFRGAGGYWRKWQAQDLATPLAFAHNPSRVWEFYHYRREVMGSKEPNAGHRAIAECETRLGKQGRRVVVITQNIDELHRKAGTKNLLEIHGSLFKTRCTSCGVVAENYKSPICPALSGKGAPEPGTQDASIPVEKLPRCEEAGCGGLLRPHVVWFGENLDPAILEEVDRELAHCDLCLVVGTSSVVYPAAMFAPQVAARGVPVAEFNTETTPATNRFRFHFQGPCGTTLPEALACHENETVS

[7] = THP-1 cell cytotoxicity, dose response, cytotoxicity control for Vif-APOBEC3G degradation inhibitor project, THP-1 cells (AID 1117359); assay type: functional; conditions: Human immunodeficiency virus 1, THP-1
[8] = Concentration-dependent survival of SW480 colon cancer line, luminescence detection with CellTiter-Glo, half-maximal inhibitory concentration (AID 1117338); assay type: functional
[9] = RKO cell viability reduction, dose response, CellTiter-Glo luminescence (AID 1117322); assay type: functional
[10] = cytotoxicity toward HCT116 cells – cell-based, CellTiter-Glo luminescence, IC50, dose response (AID 1117332); assay type: functional; conditions: HCT-116
[11] = SNU-C1 cell viability reduction, dose response, CellTiter-Glo luminescence (AID 1117323); assay type: functional, cell-based
[12] = cytotoxicity toward Colo320 cells – cell-based, CellTiter-Glo luminescence, IC50, dose response (AID 1117334); assay type: functional; conditions: COLO 320
[13] = cytotoxicity toward HT-29 cells – cell-based, CellTiter-Glo luminescence, IC50, dose response (AID 1117330); assay type: functional
[14] = CellTiter-Glo luminescent dose response of DLD-1 viability loss (AID 1117352); assay type: functional
[15] = HCT116 cell viability decrease, GSK3B pretreatment – CellTiter-Glo, IC50, dose response (AID 1117339); assay type: functional; conditions: HCT-116
[16] = inhibitors of PGC1a acetylation in cells, dose response, cell-based, cherry-picked samples (AID 720514); assay type: functional;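 also: potency may reflect raised or lowered acetylation signal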
[17] = biological target: G-protein coupled receptor 183 (Homo sapiens, UniProt P32249); experiment: SAR confirmation of small molecule antagonists of the EBI2 receptor via a luminescent beta-arrestin assa.; assay type: functional
Chain of G-protein coupled receptor 183 (P32249 whole entry): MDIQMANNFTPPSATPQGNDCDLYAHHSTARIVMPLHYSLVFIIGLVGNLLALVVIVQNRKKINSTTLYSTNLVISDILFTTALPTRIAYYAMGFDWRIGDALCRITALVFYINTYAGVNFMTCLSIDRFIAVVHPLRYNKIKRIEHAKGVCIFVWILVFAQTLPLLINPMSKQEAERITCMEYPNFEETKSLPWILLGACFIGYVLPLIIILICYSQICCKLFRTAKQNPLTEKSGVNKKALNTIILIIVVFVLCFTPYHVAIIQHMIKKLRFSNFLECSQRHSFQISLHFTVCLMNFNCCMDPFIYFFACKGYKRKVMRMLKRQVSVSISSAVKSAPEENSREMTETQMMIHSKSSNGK

**Q.** With `Nc1nc(-c2ccccc2)nc2sc3c(c12)CCCC3` as the compound, how does the IC50 (Caspase-3) read?
**A.** Its IC50 is 19 µM (active).

**Q.** What about the IC50 [1] of the same compound?
**A.** Its IC50 is 3.08 µM (active).

**Q.** What about the IC50 [2] of the same compound?
**A.** Its IC50 is 10 µM (active).

**Q.** And the IC50 [3]?
**A.** Its IC50 is 5.99 µM (active).

**Q.** What about the EC50 [4] of the same compound?
**A.** The EC50 was > 67.5 µM (inactive).

**Q.** What about the EC50 (cells) of the same compound?
**A.** The EC50 was > 67.5 µM (inactive).

**Q.** With `CCCN1C=CC(=CC=C(C#N)C#N)C=C1` as the compound, how does the EC50 [5] read?
**A.** Its EC50 is > 100 µM (active).

**Q.** What about the EC50 (Troponin, cardiac muscle) of the same compound?
**A.** The EC50 was 7.62 µM (active).

**Q.** With `CC(C)N(C(=O)[C@H]1C[C@H](CC(=O)NCc2cccc(C(F)(F)F)c2)C(=O)N2CCc3c([nH]c4cc(CCC(=O)N(C)C)ccc34)[C@]12C)C(C)C` as the compound, how does the AC50 [6] read?
**A.** Its AC50 is > 30 µM (inactive).

**Q.** For `COc1ccc(-c2[nH]c3ccccc3c2SCCN)cc1`, which CC50 [7] is on record?
**A.** The CC50 was 28.3 µM (active).

**Q.** Which IC50 [8] does the source give for `CSc1ccc(/C=C2/C(C)=C(CC(=O)O)c3cc(F)ccc32)cc1` [SULINDAC SULFIDE] here?
**A.** The IC50 was 20 µM (inactive).

**Q.** What about the IC50 [9] of the same compound?
**A.** Its IC50 is > 20 µM (inactive).

**Q.** What about the IC50 [10] of the same compound?
**A.** The IC50 was > 20 µM (inactive).

**Q.** And the IC50 [11]?
**A.** The IC50 was 12 µM (inactive).

**Q.** And the IC50 [12]?
**A.** Its IC50 is > 20 µM (inactive).

**Q.** And the IC50 [13]?
**A.** Its IC50 is > 20 µM (inactive).

**Q.** What about the IC50 [14] of the same compound?
**A.** Its IC50 is > 20 µM (inactive).

**Q.** What about the IC50 [15] of the same compound?
**A.** The IC50 was > 20 µM (inactive).

**Q.** With `N#C[C@H]1[C@H](c2ccc(C#CC3CCCC3)cc2)[C@H](CO)N1C(=O)Cc1ccccn1` as the compound, how does the AC50 [16] read?
**A.** Its AC50 is 20.4 µM (active).

**Q.** Which IC50 [17] does the source give for `O=C(/C=C/c1ccc(Br)cc1)N1CCN(C(=O)c2ccccc2)CC1` here?
**A.** Its IC50 is 0.00062 µM (active).

**Q.** For `N#C/C(=C\c1ccc(N2CCOCC2)o1)C(=O)NCCc1ccccc1`, which EC50 [5] is on record?
**A.** The EC50 was > 100 µM (active).
